How the values were obtained:
[1] = Antiproliferative activity against human Bel7402 cells assessed as cell viability after 48 hrs by MTT assay; type: functional, cell-based; details: Bel-7402, 48 h
[2] = system: A549; experiment: Antiproliferative activity against human A549 cells assessed as cell viability after 48 hrs by MTT assay; type: functional, cell-based; details: A549, 48 h
[3] = system: HeLa; experiment: Antiproliferative activity against human HeLa cells assessed as cell viability after 48 hrs by MTT assay; type: functional, cell-based
[4] = Inhibition of rat liver TrxR assessed as increase in absorbance by DTNB assay
[5] = system: MCF7; experiment: Antiproliferative activity against human MCF7 cells assessed as cell viability after 48 hrs by MTT assay; type: functional, cell-based; details: MCF7, 48 h
[6] = Aqueous solubility of the compound in phosphate buffer at pH 7.4; type: physicochemical
[7] = system: Bel-7402; experiment: Induction of apoptosis in human Bel7402 cells assessed as live cells at 1 uM after 48 hrs by flow cytometry (reference value: 98.65%); type: functional
[8] = Cell cycle arrest in human Bel7402 cells assessed as cells accumulation at S phase at 0.5 uM after 48 hrs by flow cytometry (reference value: 13.99%); type: functional, cell-based; details: Bel-7402
[9] = Cell cycle arrest in human Bel7402 cells assessed as cells accumulation at Sub-G1 phase at 5 uM after 48 hrs by flow cytometry (reference value: 1.47%); type: functional, cell-based; details: Bel-7402
[10] = system: Bel-7402; experiment: Induction of apoptosis in human Bel7402 cells assessed as necrotic cells at 1 uM after 48 hrs by flow cytometry (reference value: 0.19%); type: functional
[11] = system: Bel-7402; experiment: Induction of apoptosis in human Bel7402 cells assessed as live cells at 0.5 uM after 48 hrs by flow cytometry (reference value: 98.65%); type: functional
[12] = system: Bel-7402; experiment: Induction of apoptosis in human Bel7402 cells assessed as detection error cells at 3 uM after 48 hrs by flow cytometry (reference value: 0.43%); type: functional
[13] = Cell cycle arrest in human Bel7402 cells assessed as cells accumulation at G1 phase at 3 uM after 48 hrs by flow cytometry (reference value: 62.60%); type: functional, cell-based; details: Bel-7402
[14] = system: Bel-7402; experiment: Induction of apoptosis in human Bel7402 cells assessed as necrotic cells at 5 uM after 48 hrs by flow cytometry (reference value: 0.19%); type: functional
[15] = Cell cycle arrest in human Bel7402 cells assessed as cells accumulation at G2/M phase at 3 uM after 48 hrs by flow cytometry (reference value: 16.61%); type: functional, cell-based; details: Bel-7402
[16] = Cell cycle arrest in human Bel7402 cells assessed as cells accumulation at Sub-G1 phase at 0.5 uM after 48 hrs by flow cytometry (reference value: 1.47%); type: functional, cell-based; details: Bel-7402
[17] = Cell cycle arrest in human Bel7402 cells assessed as cells accumulation at S phase at 3 uM after 48 hrs by flow cytometry (reference value: 13.99%); type: functional, cell-based; details: Bel-7402
[18] = Cell cycle arrest in human Bel7402 cells assessed as cells accumulation at S phase at 1 uM after 48 hrs by flow cytometry (reference value: 13.99%); type: functional, cell-based; details: Bel-7402
[19] = Cell cycle arrest in human Bel7402 cells assessed as cells accumulation at G1 phase at 0.5 uM after 48 hrs by flow cytometry (reference value: 62.60%); type: functional, cell-based; details: Bel-7402
[20] = Cell cycle arrest in human Bel7402 cells assessed as cells accumulation at G1 phase at 5 uM after 48 hrs by flow cytometry (reference value: 62.60%); type: functional, cell-based; details: Bel-7402
[21] = system: Bel-7402; experiment: Induction of apoptosis in human Bel7402 cells assessed as apoptotic cells at 0.5 uM after 48 hrs by flow cytometry (reference value: 0.73%); type: functional
[22] = system: Bel-7402; experiment: Induction of apoptosis in human Bel7402 cells assessed as apoptotic cells at 1 uM after 48 hrs by flow cytometry (reference value: 0.73%); type: functional
[23] = system: Bel-7402; experiment: Induction of apoptosis in human Bel7402 cells assessed as detection error cells at 1 uM after 48 hrs by flow cytometry (reference value: 0.43%); type: functional
[24] = system: Bel-7402; experiment: Induction of apoptosis in human Bel7402 cells assessed as necrotic cells at 0.5 uM after 48 hrs by flow cytometry (reference value: 0.19%); type: functional
[25] = Cell cycle arrest in human Bel7402 cells assessed as cells accumulation at G2/M phase at 1 uM after 48 hrs by flow cytometry (reference value: 16.61%); type: functional, cell-based; details: Bel-7402
[26] = system: Bel-7402; experiment: Induction of apoptosis in human Bel7402 cells assessed as detection error cells at 5 uM after 48 hrs by flow cytometry (reference value: 0.43%); type: functional
[27] = system: Bel-7402; experiment: Induction of apoptosis in human Bel7402 cells assessed as necrotic cells at 3 uM after 48 hrs by flow cytometry (reference value: 0.19%); type: functional
[28] = system: Bel-7402; experiment: Induction of apoptosis in human Bel7402 cells assessed as detection error cells at 0.5 uM after 48 hrs by flow cytometry (reference value: 0.43%); type: functional
[29] = system: Bel-7402; experiment: Induction of apoptosis in human Bel7402 cells assessed as live cells at 3 uM after 48 hrs by flow cytometry (reference value: 98.65%); type: functional
[30] = system: Bel-7402; experiment: Induction of apoptosis in human Bel7402 cells assessed as apoptotic cells at 5 uM after 48 hrs by flow cytometry (reference value: 0.73%); type: functional
[31] = Cell cycle arrest in human Bel7402 cells assessed as cells accumulation at G2/M phase at 0.5 uM after 48 hrs by flow cytometry (reference value: 16.61%); type: functional, cell-based; details: Bel-7402
[32] = Cell cycle arrest in human Bel7402 cells assessed as cells accumulation at Sub-G1 phase at 1 uM after 48 hrs by flow cytometry (reference value: 1.47%); type: functional, cell-based; details: Bel-7402
[33] = Cell cycle arrest in human Bel7402 cells assessed as cells accumulation at G1 phase at 1 uM after 48 hrs by flow cytometry (reference value: 62.60%); type: functional, cell-based; details: Bel-7402
[34] = Cell cycle arrest in human Bel7402 cells assessed as cells accumulation at S phase at 5 uM after 48 hrs by flow cytometry (reference value: 13.99%); type: functional, cell-based; details: Bel-7402
[35] = system: Bel-7402; experiment: Induction of apoptosis in human Bel7402 cells assessed as apoptotic cells at 3 uM after 48 hrs by flow cytometry (reference value: 0.73%); type: functional
[36] = system: Bel-7402; experiment: Induction of apoptosis in human Bel7402 cells assessed as live cells at 5 uM after 48 hrs by flow cytometry (reference value: 98.65%); type: functional
[37] = Cell cycle arrest in human Bel7402 cells assessed as cells accumulation at Sub-G1 phase at 3 uM after 48 hrs by flow cytometry (reference value: 1.47%); type: functional, cell-based; details: Bel-7402
[38] = Cell cycle arrest in human Bel7402 cells assessed as cells accumulation at G2/M phase at 5 uM after 48 hrs by flow cytometry (reference value: 16.61%); type: functional, cell-based; details: Bel-7402
[39] = organism: Rattus norvegicus; experiment: Inhibition of rat liver TrxR assessed as increase in absorbance at 10 uM by DTNB assay
[40] = system: Bel-7402; experiment: Induction of apoptosis in human Bel7402 cells assessed as live cells at 50 uM after 48 hrs by flow cytometry (reference value: 98.65%); type: functional
[41] = system: Bel-7402; experiment: Induction of apoptosis in human Bel7402 cells assessed as detection error cells at 50 uM after 48 hrs by flow cytometry (reference value: 0.43%); type: functional
[42] = system: Bel-7402; experiment: Induction of apoptosis in human Bel7402 cells assessed as apoptotic cells at 50 uM after 48 hrs by flow cytometry (reference value: 0.73%); type: functional
[43] = system: Bel-7402; experiment: Induction of apoptosis in human Bel7402 cells assessed as necrotic cells at 50 uM after 48 hrs by flow cytometry (reference value: 0.19%); type: functional
[44] = organism: Rattus norvegicus; experiment: Inhibition of rat liver TrxR assessed as increase in absorbance at 50 uM by DTNB assay
[45] = Cell cycle arrest in human Bel7402 cells assessed as cells accumulation at G2/M phase at 50 uM after 48 hrs by flow cytometry (reference value: 16.61%); type: functional, cell-based; details: Bel-7402
[46] = Cell cycle arrest in human Bel7402 cells assessed as cells accumulation at S phase at 50 uM after 48 hrs by flow cytometry (reference value: 13.99%); type: functional, cell-based; details: Bel-7402
[47] = Cell cycle arrest in human Bel7402 cells assessed as cells accumulation at G1 phase at 50 uM after 48 hrs by flow cytometry (reference value: 62.60%); type: functional, cell-based; details: Bel-7402
[48] = Cell cycle arrest in human Bel7402 cells assessed as cells accumulation at Sub-G1 phase at 50 uM after 48 hrs by flow cytometry (reference value: 1.47%); type: functional, cell-based; details: Bel-7402

`COc1cccc(/C=C/c2ccc(-n3[se]c4ccccc4c3=O)cc2)c1` gave an IC50 [1] of 13.2 µM, an IC50 [2] of 10.4 µM and an IC50 [3] of 7.34 µM. It also gave an IC50 [4] of 12.8 µM and an IC50 [5] of 9.62 µM.

Molecule `COc1cc(/C=C/c2ccc(-n3[se]c4ccccc4c3=O)cc2)cc(OC)c1` has a solubility [6] of over 100 µM, an IC50 [1] of 3.49 µM and an IC50 [2] of 3.73 µM. It also gave an IC50 [3] of 3.8 µM, an IC50 [4] of 8.27 µM and an IC50 [5] of 7.78 µM.

`COc1ccc(/C=C/c2ccc(-n3[se]c4ccccc4c3=O)cc2)cc1OC` gave a solubility [6] of over 100 µM, an Activity [7] of 79.95% and an Activity [8] of 14%. For the same molecule, the Activity [9] was 6.69%, the Activity [10] was 3.04% and the Activity [11] was 89.75%. It also gave an Activity [12] of 2.39%, an Activity [13] of 40.4% and an Activity [14] of 5.26%. For the same molecule, the Activity [15] was 42%, the Activity [16] was 0.2% and the Activity [17] was 9.57%. For the same molecule, the Activity [18] was 6.93%, the Activity [19] was 55.8% and the IC50 [1] was 1.01 µM. For the same molecule, the Activity [20] was 37%, the Activity [21] was 6.73% and the Activity [22] was 13.55%. For the same molecule, the Activity [23] was 3.45%, the Activity [24] was 1.29% and the Activity [25] was 33.8%. It also gave an Activity [26] of 2.95%, an Activity [27] of 5.49% and an Activity [28] of 2.22%. For the same molecule, the Activity [29] was 55.41%, the Activity [30] was 53.63% and the Activity [31] was 22.2%. For the same molecule, the Activity [32] was 5.15%, the Activity [33] was 49% and the Activity [34] was 8.32%. The Activity [35] was 36.71%, the IC50 [2] was 1.53 µM and the IC50 [3] was 1.52 µM. For the same molecule, the IC50 [4] was 3.1 µM, the IC50 [5] was 3.37 µM and the Activity [36] was 38.16%. It also gave an Activity [37] of 5.47% and an Activity [38] of 44.2%.

With `COc1cc(/C=C/c2ccc(-n3[se]c4cc(Cl)ccc4c3=O)cc2)cc(OC)c1` the solubility [6] was under 10 µM, the IC50 [1] was 0.79 µM and the inhibition [39] was 36.4%. It also gave an IC50 [2] of 0.52 µM, an IC50 [3] of 0.23 µM and an IC50 [5] of 0.47 µM.

For `COc1cc(/C=C/c2ccc(-n3[se]c4cc(OC)c(OC)cc4c3=O)cc2)cc(OC)c1`, the IC50 [1] was 25.4 µM, the IC50 [2] was 52.6 µM and the IC50 [3] was 31.6 µM. It also gave an IC50 [4] of 7.53 µM and an IC50 [5] of 88.9 µM.

For `Oc1ccc(/C=C/c2cc(O)cc(O)c2)cc1` [RESVERATROL], the Activity [40] was 85.3%, the Activity [41] was 0.03% and the IC50 [1] was 50.7 µM. For the same molecule, the Activity [42] was 13.2%, the Activity [43] was 0.01% and the inhibition [44] was 26.1%. The Activity [45] was 31.2%, the IC50 [2] was over 100 µM and the IC50 [3] was 47.9 µM. It also gave an Activity [46] of 9.83%, an Activity [47] of 59% and an IC50 [5] of over 100 µM. It also gave an Activity [48] of 0.15%.

`O=c1c2ccccc2[se]n1-c1ccc(/C=C/c2ccccc2)cc1` gave an IC50 [1] of 12.4 µM, an inhibition [39] of 22.4% and an IC50 [2] of 23.8 µM. The IC50 [3] was 35.7 µM and the IC50 [5] was 24.8 µM.

From ChEMBL document CHEMBL3421553, “Design, synthesis, and biological evaluation of benzoselenazole-stilbene hybrids as multi-target-directed anti-cancer agents” (Eur J Med Chem, 2015)
